The record followed here is patent US20120220562A1, “Anti-Viral Compounds” (ABBOTT LABAORATORIES, priority 2011, published 2012).

The subject of this assay is HCV 1b-Con1 replicon. Put plainly: HCV 1b-Con1 replicon assay in the presence of 5% FBS. The following applies: Hepatitis C virus. Format: cell-based. In general terms: In antiviral work, replicon cells carry a viral genome segment that copies itself.
Take `COC(=O)N[C@H](C(=O)N1CCC[C@H]1c1nc2cc([C@H]3CC[C@H](c4ccc5[nH]c([C@@H]6CCCN6C(=O)[C@@H](NC(=O)OC)C(C)C)nc5c4)N3c3ccc(OCC4COCO4)cc3)ccc2[nH]1)C(C)C` (stereo partly drawn) [Example 2.4, methyl {(2S)-1-[(2S)-2-{5-[(2R,5R)-1-[4-(1,3-dioxolan-4-ylmethoxy)phenyl]-5-{2-[(2S)-1-{(2S)-2-[(methoxycarbonyl)amino]-3-methylbutanoyl}pyrrolidin-2-yl]-1H-benzimidazol-5-yl}pyrrolidin-2-yl]-1H-benzimidazol-2-yl}pyrrolidin-1-yl]-3-methyl-1-oxobutan-2-yl}carbamate]: the EC50 (in general, the midpoint of the concentration-response curve) is < 0.1 nM.

Regarding `COC(=O)N[C@H](C(=O)N1CCC[C@H]1c1nc2cc([C@H]3CC[C@H](c4ccc5[nH]c([C@@H]6CCCN6C(=O)[C@@H](NC(=O)OC)C(C)C)nc5c4)N3c3cc(F)c(N4[C@H](C)CCC[C@@H]4C)c(F)c3)ccc2[nH]1)C(C)C` [Example 4.6, methyl {(2S)-1-[(2S)-2-{5-[(2R,5R)-1-{4-[(2R,6S)-2,6-dimethylpiperidin-1-yl]-3,5-difluorophenyl}-5-{2-[(2S)-1-{(2S)-2-[(methoxycarbonyl)amino]-3-methylbutanoyl}pyrrolidin-2-yl]-1H-benzimidazol-5-yl}pyrrolidin-2-yl]-1H-benzimidazol-2-yl}pyrrolidin-1-yl]-3-methyl-1-oxobutan-2-yl}carbamate], the EC50 is < 0.1 nM. On to `COC(=O)N[C@H](C(=O)N1CCC[C@H]1c1nc2cc([C@H]3CC[C@H](c4ccc5[nH]c([C@@H]6CCCN6C(=O)[C@@H](NC(=O)OC)C6Cc7ccccc7C6)nc5c4)N3c3cc(F)c(N4CCC(c5ccccc5)CC4)c(F)c3)ccc2[nH]1)C1Cc2ccccc2C1` [Example 3.27, dimethyl ({(2R,5R)-1-[3,5-difluoro-4-(4-phenylpiperidin-1-yl)phenyl]pyrrolidine-2,5-diyl}bis{1H-benzimidazole-5,2-diyl(2S)pyrrolidine-2,1-diyl[(1S)-1-(2,3-dihydro-1H-inden-2-yl)-2-oxoethane-2,1-diyl]})biscarbamate], for which the EC50 is < 0.1 nM. On to `COC(=O)N[C@H](C(=O)N1CCC[C@H]1c1nc2cc([C@H]3CC[C@H](c4cc5nc([C@@H]6CCCN6C(=O)[C@@H](NC(=O)OC)C(C)C)[nH]c5cc4F)N3c3cc(F)c(N4CCC5(CCc6ccccc65)CC4)c(F)c3)c(F)cc2[nH]1)C(C)C` [Example 4.31, methyl {(2S)-1-[(2S)-2-{5-[(2R,5R)-1-[4-(2,3-dihydro-1′H-spiro[indene-1,4′-piperidin]-1′-yl)-3,5-difluorophenyl]-5-{6-fluoro-2-[(2S)-1-{(2S)-2-[(methoxycarbonyl)amino]-3-methylbutanoyl}pyrrolidin-2-yl]-1H-benzimidazol-5-yl}pyrrolidin-2-yl]-6-fluoro-1H-benzimidazol-2-yl}pyrrolidin-1-yl]-3-methyl-1-oxobutan-2-yl}carbamate], for which the EC50 was < 0.1 nM. For the molecule `COC(=O)N[C@H](C(=O)N1CCC[C@H]1c1nc2cc([C@H]3CC[C@H](c4cc5nc([C@@H]6CCCN6C(=O)[C@@H](NC(=O)OC)C6CCOCC6)[nH]c5cc4F)N3c3cc(F)c(N4CCN(c5c(F)cccc5F)CC4)c(F)c3)c(F)cc2[nH]1)C1CCOCC1` [Example 3.51, dimethyl ([(2R,5R)-1-{4-[4-(2,6-difluorophenyl)piperazin-1-yl]-3,5-difluorophenyl}pyrrolidine-2,5-diyl]bis{(6-fluoro-1H-benzimidazole-5,2-diyl)(2S)pyrrolidine-2,1-diyl[(1S)-2-oxo-1-(tetrahydro-2H-pyran-4-yl)ethane-2,1-diyl]})biscarbamate], the EC50 is < 0.1 nM.

As for `COC(=O)N[C@@H](C(=O)N1c2ccccc2C[C@H]1c1nc2cc([C@H]3CC[C@H](c4ccc5[nH]c([C@@H]6Cc7ccccc7N6C(=O)[C@H](NC(=O)OC)C(C)C)nc5c4)N3c3cc(F)c(N4CCCCC4)c(F)c3)ccc2[nH]1)C(C)C` [Example 3.25, methyl {(2R)-1-[(2S)-2-{5-[(2R,5R)-1-[3,5-difluoro-4-(piperidin-1-yl)phenyl]-5-{2-[(2S)-1-{(2R)-2-[(methoxycarbonyl)amino]-3-methylbutanoyl}-2,3-dihydro-1H-indol-2-yl]-1H-benzimidazol-5-yl}pyrrolidin-2-yl]-1H-benzimidazol-2-yl}-2,3-dihydro-1H-indol-1-yl]-3-methyl-1-oxobutan-2-yl}carbamate], the concentration for a half-maximal effect (EC50) was < 0.1 nM. Turning to `COC(=O)N[C@H](C(=O)N1CCC[C@H]1c1nc2cc([C@H]3CC[C@H](c4ccc5[nH]c([C@@H]6CCCN6C(=O)[C@@H](NC(=O)OC)C(C)C)nc5c4)N3c3cc(F)c(N4CCCCC4c4ccccc4)c(F)c3)ccc2[nH]1)C(C)C` (stereo partly drawn) [Example 4.50, methyl {(2S)-1-[(2S)-2-{5-[(2R,5R)-1-[3,5-difluoro-4-(2-phenylpiperidin-1-yl)phenyl]-5-{2-[(2S)-1-{(2S)-2-[(methoxycarbonyl)amino]-3-methylbutanoyl}pyrrolidin-2-yl]-1H-benzimidazol-5-yl}pyrrolidin-2-yl]-1H-benzimidazol-2-yl}pyrrolidin-1-yl]-3-methyl-1-oxobutan-2-yl}carbamate], the EC50 is < 0.1 nM. With `COC(=O)N[C@H](C(=O)N1CCC[C@H]1c1nc2cc([C@H]3CC[C@H](c4cc5nc([C@@H]6CCCN6C(=O)[C@@H](NC(=O)OC)[C@@H](C)OC)[nH]c5cc4F)N3c3cc(F)c(N4CCCCC4)c(F)c3)c(F)cc2[nH]1)[C@@H](C)OC` [Example 3.36, methyl {(2S,3R)-1-[(2S)-2-{5-[(2R,5R)-1-[3,5-difluoro-4-(piperidin-1-yl)phenyl]-5-(6-fluoro-2-{(2S)-1-[N-(methoxycarbonyl)-O-methyl-L-threonyl]pyrrolidin-2-yl}-1H-benzimidazol-5-yl)pyrrolidin-2-yl]-6-fluoro-1H-benzimidazol-2-yl}pyrrolidin-1-yl]-3-methoxy-1-oxobutan-2-yl}carbamate] the figure was < 0.1 nM; with `COC(=O)N[C@H](C(=O)N1CCC[C@H]1c1nc2cc([C@H]3CC[C@@H](c4ccc5[nH]c([C@@H]6CCCN6C(=O)[C@@H](NC(=O)OC)C(C)C)nc5c4)N3c3cc(F)c(C(F)(F)F)cc3F)ccc2[nH]1)C(C)C` [Example 1.3, methyl {(2S)-1-[(2S)-2-{5-[(2S,5R)-1-[2,5-difluoro-4-(trifluoromethyl)phenyl]-5-{2-[(2S)-1-{(2S)-2-[(methoxycarbonyl)amino]-3-methylbutanoyl}pyrrolidin-2-yl]-1H-benzimidazol-5-yl}pyrrolidin-2-yl]-1H-benzimidazol-2-yl}pyrrolidin-1-yl]-3-methyl-1-oxobutan-2-yl}carbamate], < 0.1 nM; with `COC(=O)N[C@H](C(=O)N1CCC[C@H]1c1nc2cc([C@H]3CC[C@H](c4ccc5[nH]c([C@@H]6CCCN6C(=O)[C@@H](NC(=O)OC)C6CCCCC6)nc5c4)N3c3cc(F)c(N4CCCCC4)c(F)c3)ccc2[nH]1)C1CCCCC1` [Example 5.6, dimethyl ({(2R,5R)-1-[3,5-difluoro-4-(piperidin-1-yl)phenyl]pyrrolidine-2,5-diyl}bis{1H-benzimidazole-5,2-diyl(2S)pyrrolidine-2,1-diyl [(1S)-1-cyclohexyl-2-oxoethane-2,1-diyl]})biscarbamate], < 0.1 nM. As for `COC(=O)N[C@H](C(=O)N1CCC[C@H]1c1nc2cc([C@@H]3CC[C@@H](c4ccc5[nH]c([C@@H]6CCCN6C(=O)[C@@H](NC(=O)OC)[C@@H](C)OC)nc5c4)N3c3ccc(C4CC4)cc3)ccc2[nH]1)[C@@H](C)OC` [Example 4.14, methyl {(2S,3R)-1-[(2S)-2-{5-[(2S,55)-1-(4-cyclopropylphenyl)-5-(2-{(2S)-1-[N-(methoxycarbonyl)-O-methyl-L-threonyl]pyrrolidin-2-yl}-1H-benzimidazol-5-yl)pyrrolidin-2-yl]-1H-benzimidazol-2-yl}pyrrolidin-1-yl]-3-methoxy-1-oxobutan-2-yl}carbamate], the half-maximal effective concentration (EC50) was < 0.1 nM. Consider `COC(=O)N[C@H](C(=O)N1CCC[C@H]1c1nc2cc([C@H]3CC[C@H](c4ccc5[nH]c([C@@H]6CCCN6C(=O)[C@@H](NC(=O)OC)C(C)C)nc5c4)N3c3cc(Cl)c(N4CCCCC4)c(Cl)c3)ccc2[nH]1)C(C)C` [Example 4.4, methyl {(2S)-1-[(2S)-2-{5-[(2R,5R)-1-[3,5-dichloro-4-(piperidin-1-yl)phenyl]-5-{2-[(2S)-1-{(2S)-2-[(methoxycarbonyl)amino]-3-methylbutanoyl}pyrrolidin-2-yl]-1H-benzimidazol-5-yl}pyrrolidin-2-yl]-1H-benzimidazol-2-yl}pyrrolidin-1-yl]-3-methyl-1-oxobutan-2-yl}carbamate], for which the EC50 is < 0.1 nM. With `COC(=O)N[C@H](C(=O)N1CCC[C@H]1c1nc2cc([C@H]3CC[C@@H](c4cc5[nH]c([C@@H]6CCCN6C(=O)[C@@H](NC(=O)OC)C(C)C)nc5cc4F)N3c3ccc(C(C)(C)C)cc3)c(F)cc2[nH]1)C(C)C` [Example 6.2, methyl {(2S)-1-[(2S)-2-{5-[(2R,5S)-1-(4-tert-butylphenyl)-5-{5-fluoro-2-[(2S)-1-(2S)-2-[(methoxycarbonyl)amino]-3-methylbutanoylpyrrolidin-2-yl]-1H-benzimidazol-6-yl}pyrrolidin-2-yl]-6-fluoro-1H-benzimidazol-2-yl}pyrrolidin-1-yl]-3-methyl-1-oxobutan-2-yl}carbamate] the figure was < 0.1 nM; with `O=C([C@@H]1CCCO1)N1CCC[C@H]1c1nc2cc([C@H]3CC[C@H](c4ccc5[nH]c([C@@H]6CCCN6C(=O)[C@@H]6CCCO6)nc5c4)N3c3cc(F)c(N4CCC(c5ccccc5)CC4)c(F)c3)ccc2[nH]1` [Example 3.31, ({(2R,5R)-1-[3,5-difluoro-4-(4-phenylpiperidin-1-yl)phenyl]pyrrolidine-2,5-diyl}bis[1H-benzimidazole-5,2-diyl(2S)pyrrolidine-2,1-diyl])bis[(2S)-tetrahydrofuran-2-ylmethanone]], < 0.1 nM; with `COC(=O)N[C@H](C(=O)N1CCC[C@H]1c1nc2cc([C@@H]3CC[C@@H](c4ccc5[nH]c([C@@H]6CCCN6C(=O)[C@@H](NC(=O)OC)[C@@H](C)OC)nc5c4)N3c3ccc(C4CC4)cc3F)ccc2[nH]1)[C@@H](C)OC` [Example 3.13, methyl {(2S,3R)-1-[(2S)-2-{5-[(2S,5S)-1-(4-cyclopropyl-2-fluorophenyl)-5-(2-{(2S)-1-[N-(methoxycarbonyl)-O-methyl-L-threonyl]pyrrolidin-2-yl}-1H-benzimidazol-5-yl)pyrrolidin-2-yl]-1H-benzimidazol-2-yl}pyrrolidin-1-yl]-3-methoxy-1-oxobutan-2-yl}carbamate], < 0.1 nM.
